How the values were obtained:
Assay in all cases: Post-emergence test on weeds (greenhouse, spray at 2-3 leaf stage)
Format in all cases: in vivo
Set-up in all cases: key: Level 10: completely dead; Level 9: growth control rate greater than or equal to 90% and less than 100%; Level 8: growth control rate greater than or equal to 80% and less than 90%; Level 7: growth control rate greater than or equal to 70% and less than 80%; Level 6: growth control rate greater than or equal to 60% and less than 70%; Level 5: growth control rate greater than or equal to 50% and less than 60%; Level 4: growth control rate greater than or equal to 40% and less than 50%; Level 3: growth control rate greater than or equal to 30% and less than 40%; Level 2: growth control rate greater than or equal to 20% and less than 30%; Level 1: growth control rate less than 20%; Level 0: no effect
Conditions in all cases: 60 g a.i./ha, 3 weeks after application
[1] = test system: Abutilon theophrasti
How it was run: (§1)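 Greenhouse pot-grown weeds were sprayed by spray tower at the 2-3 leaf stage, about two weeks after sowing, with acetone/Tween 80 solutions plus 1.5 L/ha methyl oleate EC synergist at 500, 250, […], 15 and 7.5 g a.i./ha. Fresh-weight growth control was scored 0-10 after 3 weeks, triplicate averaged.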

[2] = test system: Amaranthus retroflexus
How it was run: as §1

[3] = test system: Digitaria sanguinalis
How it was run: as §1

[4] = test system: Echinochloa crus-galli
How it was run: as §1

[5] = test system: Setaria viridis
How it was run: as §1

[6] = test system: Veronica polita
How it was run: as §1

C#CCOC(=O)C1(C)ON=C(c2cc(-c3ncc(C(F)(F)F)cc3Cl)c(F)cc2Cl)O1 (stereo not drawn) [Compound 97]
10: activity level (fresh weight growth control rate), Abutilon theophrasti [1] | activity level (fresh weight growth control rate), Amaranthus retroflexus [2] | activity level (fresh weight growth control rate), Digitaria sanguinalis [3] | activity level (fresh weight growth control rate), Echinochloa crus-galli [4] | activity level (fresh weight growth control rate), Setaria viridis [5] | activity level (fresh weight growth control rate), Veronica polita [6]

CC1(C(=O)OCCF)ON=C(c2cc(-c3ncc(C(F)(F)F)cc3Cl)c(F)cc2Cl)O1 (stereo not drawn) [Compound 99]
10: activity level (fresh weight growth control rate), Abutilon theophrasti [1] | activity level (fresh weight growth control rate), Amaranthus retroflexus [2] | activity level (fresh weight growth control rate), Digitaria sanguinalis [3] | activity level (fresh weight growth control rate), Echinochloa crus-galli [4] | activity level (fresh weight growth control rate), Setaria viridis [5] | activity level (fresh weight growth control rate), Veronica polita [6]

CC1(C(=O)OCC(F)F)ON=C(c2cc(-c3ncc(C(F)(F)F)cc3Cl)c(F)cc2Cl)O1 (stereo not drawn) [Compound 101]
10: activity level (fresh weight growth control rate), Abutilon theophrasti [1] | activity level (fresh weight growth control rate), Amaranthus retroflexus [2] | activity level (fresh weight growth control rate), Digitaria sanguinalis [3] | activity level (fresh weight growth control rate), Echinochloa crus-galli [4] | activity level (fresh weight growth control rate), Setaria viridis [5] | activity level (fresh weight growth control rate), Veronica polita [6]

CC1(C(=O)OCCCF)ON=C(c2cc(-c3ncc(C(F)(F)F)cc3Cl)c(F)cc2Cl)O1 (stereo not drawn) [Compound 103]
10: activity level (fresh weight growth control rate), Abutilon theophrasti [1] | activity level (fresh weight growth control rate), Amaranthus retroflexus [2] | activity level (fresh weight growth control rate), Digitaria sanguinalis [3] | activity level (fresh weight growth control rate), Echinochloa crus-galli [4] | activity level (fresh weight growth control rate), Setaria viridis [5] | activity level (fresh weight growth control rate), Veronica polita [6]

C=CCCCOC(=O)C1(C)ON=C(c2cc(-c3ncc(C(F)(F)F)cc3Cl)c(F)cc2Cl)O1 (stereo not drawn) [Compound 106]
10: activity level (fresh weight growth control rate), Abutilon theophrasti [1] | activity level (fresh weight growth control rate), Amaranthus retroflexus [2] | activity level (fresh weight growth control rate), Digitaria sanguinalis [3] | activity level (fresh weight growth control rate), Echinochloa crus-galli [4] | activity level (fresh weight growth control rate), Setaria viridis [5] | activity level (fresh weight growth control rate), Veronica polita [6]

COCOC(=O)C1(C)ON=C(c2cc(-c3ncc(C(F)(F)F)cc3Cl)c(F)cc2Cl)O1 (stereo not drawn) [Compound 108]
10: activity level (fresh weight growth control rate), Abutilon theophrasti [1] | activity level (fresh weight growth control rate), Amaranthus retroflexus [2] | activity level (fresh weight growth control rate), Digitaria sanguinalis [3] | activity level (fresh weight growth control rate), Echinochloa crus-galli [4] | activity level (fresh weight growth control rate), Setaria viridis [5] | activity level (fresh weight growth control rate), Veronica polita [6]

CSCOC(=O)C1(C)ON=C(c2cc(-c3ncc(C(F)(F)F)cc3Cl)c(F)cc2Cl)O1 (stereo not drawn) [Compound 109]
10: activity level (fresh weight growth control rate), Abutilon theophrasti [1] | activity level (fresh weight growth control rate), Amaranthus retroflexus [2] | activity level (fresh weight growth control rate), Digitaria sanguinalis [3] | activity level (fresh weight growth control rate), Echinochloa crus-galli [4] | activity level (fresh weight growth control rate), Setaria viridis [5] | activity level (fresh weight growth control rate), Veronica polita [6]

COCCOC(=O)C1(C)ON=C(c2cc(-c3ncc(C(F)(F)F)cc3Cl)c(F)cc2Cl)O1 (stereo not drawn) [Compound 110]
10: activity level (fresh weight growth control rate), Abutilon theophrasti [1] | activity level (fresh weight growth control rate), Amaranthus retroflexus [2] | activity level (fresh weight growth control rate), Digitaria sanguinalis [3] | activity level (fresh weight growth control rate), Echinochloa crus-galli [4] | activity level (fresh weight growth control rate), Setaria viridis [5] | activity level (fresh weight growth control rate), Veronica polita [6]

COCCOC(=O)C1(C)ON=C(c2cc(-c3ncc(Cl)cc3Cl)c(F)cc2Cl)O1 (stereo not drawn) [Compound 111]
10: activity level (fresh weight growth control rate), Abutilon theophrasti [1] | activity level (fresh weight growth control rate), Amaranthus retroflexus [2] | activity level (fresh weight growth control rate), Digitaria sanguinalis [3] | activity level (fresh weight growth control rate), Echinochloa crus-galli [4] | activity level (fresh weight growth control rate), Setaria viridis [5] | activity level (fresh weight growth control rate), Veronica polita [6]

COCCOC(=O)C1ON=C(c2cc(-c3ncc(C(F)(F)F)cc3Cl)c(F)cc2Cl)O1 (stereo not drawn) [Compound 112]
10: activity level (fresh weight growth control rate), Abutilon theophrasti [1] | activity level (fresh weight growth control rate), Amaranthus retroflexus [2] | activity level (fresh weight growth control rate), Digitaria sanguinalis [3] | activity level (fresh weight growth control rate), Echinochloa crus-galli [4] | activity level (fresh weight growth control rate), Setaria viridis [5] | activity level (fresh weight growth control rate), Veronica polita [6]

COCCCOC(=O)C1(C)ON=C(c2cc(-c3ncc(C(F)(F)F)cc3Cl)c(F)cc2Cl)O1 (stereo not drawn) [Compound 114]
10: activity level (fresh weight growth control rate), Abutilon theophrasti [1] | activity level (fresh weight growth control rate), Amaranthus retroflexus [2] | activity level (fresh weight growth control rate), Digitaria sanguinalis [3] | activity level (fresh weight growth control rate), Echinochloa crus-galli [4] | activity level (fresh weight growth control rate), Setaria viridis [5] | activity level (fresh weight growth control rate), Veronica polita [6]

COCCCOC(=O)C1ON=C(c2cc(-c3ncc(C(F)(F)F)cc3Cl)c(F)cc2Cl)O1 (stereo not drawn) [Compound 115]
10: activity level (fresh weight growth control rate), Abutilon theophrasti [1] | activity level (fresh weight growth control rate), Amaranthus retroflexus [2] | activity level (fresh weight growth control rate), Digitaria sanguinalis [3] | activity level (fresh weight growth control rate), Echinochloa crus-galli [4] | activity level (fresh weight growth control rate), Setaria viridis [5] | activity level (fresh weight growth control rate), Veronica polita [6]

CC(C#N)OC(=O)C1(C)ON=C(c2cc(-c3ncc(C(F)(F)F)cc3Cl)c(F)cc2Cl)O1 (stereo not drawn) [Compound 116]
10: activity level (fresh weight growth control rate), Abutilon theophrasti [1] | activity level (fresh weight growth control rate), Amaranthus retroflexus [2] | activity level (fresh weight growth control rate), Digitaria sanguinalis [3] | activity level (fresh weight growth control rate), Echinochloa crus-galli [4] | activity level (fresh weight growth control rate), Setaria viridis [5] | activity level (fresh weight growth control rate), Veronica polita [6]

CC1(C(=O)OCC2CC2)ON=C(c2cc(-c3ncc(C(F)(F)F)cc3Cl)c(F)cc2Cl)O1 (stereo not drawn) [Compound 126]
10: activity level (fresh weight growth control rate), Abutilon theophrasti [1] | activity level (fresh weight growth control rate), Amaranthus retroflexus [2] | activity level (fresh weight growth control rate), Digitaria sanguinalis [3] | activity level (fresh weight growth control rate), Echinochloa crus-galli [4] | activity level (fresh weight growth control rate), Setaria viridis [5] | activity level (fresh weight growth control rate), Veronica polita [6]

CC1(C(=O)OC2CCCC2)ON=C(c2cc(-c3ncc(C(F)(F)F)cc3Cl)c(F)cc2Cl)O1 (stereo not drawn) [Compound 127]
10: activity level (fresh weight growth control rate), Abutilon theophrasti [1] | activity level (fresh weight growth control rate), Amaranthus retroflexus [2] | activity level (fresh weight growth control rate), Digitaria sanguinalis [3] | activity level (fresh weight growth control rate), Echinochloa crus-galli [4] | activity level (fresh weight growth control rate), Setaria viridis [5] | activity level (fresh weight growth control rate), Veronica polita [6]
